Test results reported in patent US20250346563A1, “HISTONE DEACETYLASE 6 INHIBITORS AND METHOD FOR TREATING NEUROPATHIC PAIN” (Taipei Medical University, priority 2019, published 2025).

Legend:
[1] = test system: rat Taxol-induced neuropathic pain model; assay: Thermal hyperalgesia in rat Taxol-induced neuropathic pain model; conditions: for thermal hyperalgesia (heat pain threshold) vs vehicle: p<0.05
Description: Gabapentin (100 mg/kg), was administrated via IP injection on Days 14, 21, and 27 (total three doses) by using the same cohort of animals in vehicle control group. Thermal hyperalgesia was assessed prior to Taxol challenge (Day 0; Pre-Taxol) and compound administration (Day 13; Pre-dose) and at 1.5 hours after (second) compound administration on Days 14, 17, 21, 24, and 27 (Post-dose). All values represented mean±SEM in individual groups. One-way ANOVA followed by Dunnett's test was applied for comparison between vehicle control and test article groups. p<0.05 is considered significant.
Animal. Male Sprague-Dawley (SD) rats weighing 220-260 g (at arrival) were provided by BioLasco Taiwan (under Charles River Laboratories Technology Licensee).
Chemotherapy induced neuropathy. Male SD rats weighing 240±20 grams was employed. Taxol (2 mg/kg) was injected IP on Days 1, 3, 5 and 7 with a total cumulative dose of 8 mg/kg (qod×4). During the course of the study, the animals were housed socially under constant temperature, humidity and a 12-hour light-dark cycle.
The reference compound, gabapentin (100 mg/kg, IP), was administrated on Days 14, 21, and 27 (total three doses) by using the same cohort of animals in vehicle control group.
The animals were tested prior to study inclusion for thermal hyperalgesia on Day 13. Thermal hyperalgesia was measured at 1.5 hour after dosing of vehicle or test article on Days 14, 17, 21, 24 and 27 by using the IITC Plantar Test Apparatus (IITC Model-336G; IITC Inc., USA). […] A light beam under the floor was aimed at the plantar surface of the left hind paw. The time was measured automatically when the paw is withdrawn away from the thermal stimulus. A cut-off latency of 23 sec was imposed. The latency to withdrawal was obtained for each rat and defined as the heat pain threshold.
All values represented mean±SEM in individual groups. One-way ANOVA followed by Dunnett's test was applied for comparison between vehicle control and test article groups. p<0.05 is considered significant.

scopolamine-treated rats [2] = assay: Elevated plus maze test, scopolamine-treated rats; assay type: in vivo; conditions: by gavage twice daily for seven days; scopolamine 1.5 mg/kg ip
Description: (§1) Compound 12, Compound 28, suberanilohydroxamic acid (50 mg/kg) or vehicle was given to rats by gavage twice daily for seven days prior to behavioral experiments. On the day conducting a behavior assessment, rats in all groups except the control group were administered scopolamine (1.5 mg/kg) by intraperitoneal injection for 30 minutes before the assessment, then a water maze test or an elevated plus maze test was performed.

scopolamine-treated rats [3] = assay: Water maze test, scopolamine-treated rats; assay type: in vivo; conditions: by gavage twice daily for seven days; scopolamine 1.5 mg/kg ip
Description: as §1

[4] = test system: multiple myeloma cells (RPMI8226, U266, NCI-H929); assay: Apoptosis in multiple myeloma cells, combined with bortezomib (FACScan, propidium iodide); assay type: cell-based, human; conditions: RPMI8226, U266, and NCI-H929, 24 hours
Description: A study was conducted to evaluate the effect of a compound of Formula (I) combined with bortezomib in inducing apoptosis in multiple myeloma cells.
To detect cell cycle progression, cells were incubated with or without the indicated agent for 24 hours, washed twice with ice-cold PBS, collected by centrifugation, and fixed in 70% (v/v) ethanol for 2 hours at −20° C. They were subsequently incubated for 30 minutes at room temperature with 0.2 mL of deoxyribonucleic acid (DNA) extraction buffer (0.2 M Na2HPO4 and 0.1 M citric acid buffer, pH 7.8), re-suspended in 1 mL of propidium iodide staining buffer (0.1% Triton X-100, 100 μg/mL of RNase A, and 80 μg/mL of propidium iodide in PBS), incubated at 37° C. for 30 minutes in darkness, sorted by FACScan, and analyzed using CellQuest software (BD Biosciences).
The study was performed according to the protocol reported in Hsieh et al., Cell Death and Disease, 2014 April; 5:e1166.

IL-6 expression = assay: LPS-induced IL-6 expression in RAW 264.7 cells (ELISA); assay type: cell-based, mouse; conditions: 10 μM, LPS 24 hr
Description: FIG. 1. Effects of Compound 28 on LPS-induced IL-6 protein expression. The cells were induced with 1 µg/mL LPS and various concentrations of Compound 28 for 24 hr. The levels of IL-6 were determined by ELISA kit.
In this example, we tested that whether Compound 28 can attenuate LPS-induced inflammation.
Cells. The RAW 264.7 cell line derived from mouse macrophage were maintained in Dulbecco's modified Eagle's medium (DMEM; GIBCO, Carlsbad, CA, USA) supplemented with 10% heat-inactivated fetal bovine serum (FBS), 100 μg/mL streptomycin, and 100 IU/mL penicillin.
Measurement of IL-6 expression. RAW cells were cultured onto 6 wells plate. After reaching 80% confluence, cells were pretreated with Compound 28 in 1% FBS medium for 30 min and then incubated with LPS for 24 hr. The levels of IL-6 were determined by IL-6 ELISA kit (BD Bioscience, San Jose, CA, USA). Briefly, 50 μL conditioned medium and 50 μL Assay Diluent were added to each well for 2 hours at room temperature. After washed five times, 100 μL Working Detector was added and incubated for 1 hour. After repetitive washing, 100 μL TMB-Substrate Solution was added for 30 minutes. Finally, 50 μL Stop Solution was added and the optical density was determined using microplate reader set at 450 nm.

## O=C(CCCCCCNC(=O)c1cnc(N(c2ccccc2)c2ccccc2Cl)nc1)NO [ACY241, Citarinostat, reference compound]
[1]; 50 mg/kg PO qd x14, Days 14, 17, 21, and 24
  thermal hyperalgesia (heat pain threshold) vs vehicle: successfully relieved the thermal hyperalgesia

## O=C(NO)c1ccc(CNc2cccc3ncccc23)cc1 [Compound 12, N-hydroxy-4-((quinolin-5-ylamino)methyl)benzamide]
scopolamine-treated rats [2]
  transfer latency time (elevated plus maze test): significantly rescued scopolamine-mediated increase of transfer latency time
scopolamine-treated rats [3]
  time spent in the correct quadrant (water maze test): markedly reverse this effect

## O=C(NO)c1ccc(CNc2cccc3cccnc23)cc1 [Compound 28, N-hydroxy-4-((quinolin-8-ylamino)methyl)benzamide]
[4]
  apoptosis induction: synergistically induced apoptosis
[1]; 50 mg/kg PO bid x14, Days 21 and 24
  thermal hyperalgesia (heat pain threshold) vs vehicle: markedly reduced the thermal pain
[1]; 50 mg/kg PO qd x14, Days 14 and 17
  thermal hyperalgesia (heat pain threshold) vs vehicle: significant analgesic effects
[1]; 50 mg/kg PO qd x14, Days 21 and 24
  thermal hyperalgesia (heat pain threshold) vs vehicle: markedly reduced the thermal pain
IL-6 expression
  LPS-induced IL-6 expression: significantly reduce LPS-induced IL-6 expression
scopolamine-treated rats [2]
  transfer latency time (elevated plus maze test): significantly rescued scopolamine-mediated increase of transfer latency time
scopolamine-treated rats [3]
  time spent in the correct quadrant (water maze test): markedly reverse this effect

## NCC1(CC(=O)O)CCCCC1 [Gabapentin, reference compound]
[1]; 100 mg/kg IP on Days 14, 21, and 27, during the experimental period
  thermal hyperalgesia (heat pain threshold): attenuated the thermal pain
